Test results reported in ChEMBL document CHEMBL1909046, “DrugMatrix in vitro pharmacology data”.

Tests used:
[1] = target: T1, Alpha-1A adrenergic receptor (Rattus norvegicus, UniProt P43140); assay: DRUGMATRIX: Alpha-1A adrenergic receptor radioligand binding (ligand: prazosin); type: cell membranes, Wistar, Submaxillary gland, Membrane; conditions: Not Active = under 50% inhibition at 10 µM
T1 sequence (P43140 whole entry): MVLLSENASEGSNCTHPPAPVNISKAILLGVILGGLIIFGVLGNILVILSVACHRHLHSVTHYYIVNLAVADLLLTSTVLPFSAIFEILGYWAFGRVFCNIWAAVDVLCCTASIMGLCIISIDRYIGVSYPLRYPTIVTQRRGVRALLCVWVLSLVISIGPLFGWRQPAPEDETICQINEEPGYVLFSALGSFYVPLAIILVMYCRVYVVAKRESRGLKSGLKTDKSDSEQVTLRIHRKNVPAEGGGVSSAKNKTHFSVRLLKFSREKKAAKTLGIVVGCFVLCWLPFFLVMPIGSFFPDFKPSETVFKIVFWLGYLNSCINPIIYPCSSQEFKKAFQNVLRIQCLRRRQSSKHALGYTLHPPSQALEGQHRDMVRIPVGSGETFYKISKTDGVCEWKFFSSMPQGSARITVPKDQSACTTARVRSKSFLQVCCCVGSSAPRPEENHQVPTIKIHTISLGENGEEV

[2] = target: T2, Alpha-2C adrenergic receptor (Homo sapiens, UniProt P18825); assay: DRUGMATRIX: Adrenergic Alpha-2C radioligand binding (ligand: [3H] MK-912); type: cell membranes, Sf9, Membrane
T2 sequence (P18825 whole entry): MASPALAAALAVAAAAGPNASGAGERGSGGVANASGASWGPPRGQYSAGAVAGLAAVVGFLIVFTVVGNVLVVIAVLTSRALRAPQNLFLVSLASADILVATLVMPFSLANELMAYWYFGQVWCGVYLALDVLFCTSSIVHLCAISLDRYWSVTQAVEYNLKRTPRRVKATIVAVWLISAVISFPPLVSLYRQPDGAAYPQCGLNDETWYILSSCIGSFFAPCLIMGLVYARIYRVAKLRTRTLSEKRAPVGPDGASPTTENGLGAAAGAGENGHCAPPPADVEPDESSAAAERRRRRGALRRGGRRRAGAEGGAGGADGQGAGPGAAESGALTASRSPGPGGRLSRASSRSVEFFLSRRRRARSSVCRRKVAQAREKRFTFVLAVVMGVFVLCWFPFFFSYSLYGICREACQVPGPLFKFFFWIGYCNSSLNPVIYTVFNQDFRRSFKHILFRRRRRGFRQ

[3] = DRUGMATRIX: Tumor Necrosis Factor (TNF), Non-Selective radioligand binding (ligand: [125I] TNF-alpha); type: cell membranes, Membrane; conditions: u-937; Not Active = under 50% inhibition at 10 µM
[4] = target: Vasopressin V1a receptor (Homo sapiens, UniProt P37288); type: cell membranes, Membrane; conditions: hek293; note: in other assays of this panel Not Active means under 50% inhibition at 10 µM
[5] = DRUGMATRIX: Leukotriene, BLT (LTB4) radioligand binding (ligand: [3H]LTB4); type: cell membranes, Membrane; conditions: u-937; Not Active = under 50% inhibition at 10 µM
[6] = target: T3, Amine oxidase [flavin-containing] A (Homo sapiens, UniProt P21397); assay: DRUGMATRIX: Monoamine Oxidase MAO-A enzyme inhibition (substrate: Kynuramine); set-up: species or system BTI-TN-5B1-4; conditions: bti-tn-5b1-4; Not Active = under 50% inhibition at 10 µM
T3 sequence (P21397 whole entry): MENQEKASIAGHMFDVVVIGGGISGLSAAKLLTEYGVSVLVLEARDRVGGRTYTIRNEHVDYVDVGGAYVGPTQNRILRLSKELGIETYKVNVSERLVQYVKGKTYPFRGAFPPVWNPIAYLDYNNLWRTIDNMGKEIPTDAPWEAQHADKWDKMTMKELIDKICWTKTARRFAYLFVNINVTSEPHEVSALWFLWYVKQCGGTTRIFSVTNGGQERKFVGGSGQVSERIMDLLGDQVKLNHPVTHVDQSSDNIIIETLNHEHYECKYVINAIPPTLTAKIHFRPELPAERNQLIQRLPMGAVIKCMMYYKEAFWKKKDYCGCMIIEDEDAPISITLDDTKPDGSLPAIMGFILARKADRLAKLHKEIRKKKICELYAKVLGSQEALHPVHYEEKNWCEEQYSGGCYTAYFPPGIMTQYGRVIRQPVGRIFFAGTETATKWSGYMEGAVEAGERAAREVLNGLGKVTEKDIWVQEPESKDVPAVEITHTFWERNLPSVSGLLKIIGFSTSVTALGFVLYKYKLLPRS

[7] = target: T4, Adenosine receptor A3 (Homo sapiens, UniProt P0DMS8); type: cell membranes, CHO-K1, Membrane;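 note: radioligand binding assay with AB-MECA serving as the labeled ligand; in other assays of this panel Not Active means under 50% inhibition at 10 µM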
T4 sequence (P0DMS8 whole entry): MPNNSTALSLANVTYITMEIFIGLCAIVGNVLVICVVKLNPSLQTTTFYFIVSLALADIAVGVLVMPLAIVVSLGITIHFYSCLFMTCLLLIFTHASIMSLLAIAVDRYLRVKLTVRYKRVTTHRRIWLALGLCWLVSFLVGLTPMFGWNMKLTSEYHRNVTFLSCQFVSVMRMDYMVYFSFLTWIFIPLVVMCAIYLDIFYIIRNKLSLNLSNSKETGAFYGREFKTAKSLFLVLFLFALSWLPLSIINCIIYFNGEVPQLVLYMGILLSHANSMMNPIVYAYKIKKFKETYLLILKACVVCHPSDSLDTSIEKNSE

Chain of Vasopressin V1a receptor (P37288 whole entry): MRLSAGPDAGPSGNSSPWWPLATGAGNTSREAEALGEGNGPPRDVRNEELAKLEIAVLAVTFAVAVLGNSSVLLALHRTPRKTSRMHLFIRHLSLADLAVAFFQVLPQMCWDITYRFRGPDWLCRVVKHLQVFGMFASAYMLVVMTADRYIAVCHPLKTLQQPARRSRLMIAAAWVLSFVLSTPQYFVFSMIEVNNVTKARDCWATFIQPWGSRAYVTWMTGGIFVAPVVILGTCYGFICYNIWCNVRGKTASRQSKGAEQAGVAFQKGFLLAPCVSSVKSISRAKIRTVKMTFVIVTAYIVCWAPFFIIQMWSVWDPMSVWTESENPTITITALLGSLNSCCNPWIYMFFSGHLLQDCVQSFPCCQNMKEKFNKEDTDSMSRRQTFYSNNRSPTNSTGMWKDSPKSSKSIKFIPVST

SMILES | IC50 [1] | IC50 ([2]; sf9) | IC50 [3] | Ki [3] | IC50 [4] | IC50 [5] | Ki [5] | IC50 [6] | IC50 ([7]; cho-k1) | IC50 ([2]; read-out: IC50) [µM] | Ki ([2]; read-out: Ki) [µM] | IC50 ([7]; read-out: IC50) [µM] | Ki ([7]; read-out: Ki) [µM]
O=C(N[C@H](CO)[C@H](O)c1ccc([N+](=O)[O-])cc1)C(Cl)Cl [CHLORAMPHENICOL] | Not Active | Not Active | Not Active | Not Active | Not Active | Not Active | Not Active | Not Active | Not Active | – | – | – | –
ClC(Cl)Cl [CHLOROFORM] | Not Active | Not Active | Not Active | Not Active | Not Active | Not Active | Not Active | Not Active | Not Active | – | – | – | –
C=C1CC[C@H](O)C/C1=C/C=C1\CCC[C@]2(C)[C@@H]([C@H](C)CCCC(C)C)CC[C@@H]12 [CHOLECALCIFEROL] | Not Active | Not Active | Not Active | Not Active | Not Active | Not Active | Not Active | Not Active | Not Active | – | – | – | –
C[N+](C)(C)CCO.[Cl-] [CHOLINE CHLORIDE] | Not Active | Not Active | Not Active | Not Active | Not Active | Not Active | Not Active | Not Active | Not Active | – | – | – | –
CCOC(=O)C(C)(C)Oc1ccc(Cl)cc1 [CLOFIBRATE] | Not Active | Not Active | Not Active | Not Active | Not Active | Not Active | Not Active | Not Active | Not Active | – | – | – | –
CC(=O)OCC(=O)[C@@]1(O)CC[C@H]2[C@@H]3CCC4=CC(=O)CC[C@]4(C)[C@H]3C(=O)C[C@@]21C [CORTISONE ACETATE] | Not Active | Not Active | Not Active | Not Active | Not Active | Not Active | Not Active | Not Active | Not Active | – | – | – | –
O=c1ccc2ccccc2o1 [COUMARIN] | Not Active | Not Active | Not Active | Not Active | Not Active | Not Active | Not Active | Not Active | Not Active | – | – | – | –
C[C@@H]1C[C@@H]([C@H](O)CC2CC(=O)NC(=O)C2)C(=O)[C@@H](C)C1 [CYCLOHEXIMIDE] | Not Active | Not Active | Not Active | Not Active | Not Active | Not Active | Not Active | Not Active | Not Active | – | – | – | –
C/C=C/C[C@@H](C)[C@@H](O)[C@H]1C(=O)N[C@@H](CC)C(=O)N(C)CC(=O)N(C)[C@@H](CC(C)C)C(=O)N[C@@H](C(C)C)C(=O)N(C)[C@@H](CC(C)C)C(=O)N[C@@H](C)C(=O)N[C@H](C)C(=O)N(C)[C@@H](CC(C)C)C(=O)N(C)[C@@H](CC(C)C)C(=O)N(C)[C@@H](C(C)C)C(=O)N1C [CYCLOSPORINE] | Not Active | Not Active | Not Active | Not Active | Not Active | Not Active | Not Active | Not Active | Not Active | – | – | – | –
CN(C)/N=N/c1[nH]cnc1C(N)=O [DACARBAZINE] | Not Active | Not Active | Not Active | Not Active | Not Active | Not Active | Not Active | Not Active | Not Active | – | – | – | –
COc1ccc2c(c1)[C@]13CCCC[C@@H]1[C@H](C2)N(C)CC3 [DEXTROMETHORPHAN] | Not Active | Not Active | Not Active | Not Active | Not Active | Not Active | Not Active | Not Active | Not Active | – | – | – | –
CC(=O)Nc1c(I)c(NC(C)=O)c(I)c(C(=O)O)c1I [DIATRIZOIC ACID] | Not Active | Not Active | Not Active | Not Active | Not Active | Not Active | Not Active | Not Active | Not Active | – | – | – | –
COP(=O)(OC)OC=C(Cl)Cl [DICHLORVOS] | Not Active | Not Active | Not Active | Not Active | Not Active | Not Active | Not Active | Not Active | Not Active | – | – | – | –
O=C(O)Cc1ccccc1Nc1c(Cl)cccc1Cl [DICLOFENAC] | Not Active | Not Active | Not Active | Not Active | Not Active | Not Active | Not Active | Not Active | Not Active | – | – | – | –
C[C@H]1O[C@@H](O[C@H]2[C@@H](O)C[C@H](O[C@H]3[C@@H](O)C[C@H](O[C@H]4CC[C@@]5(C)[C@H](CC[C@@H]6[C@@H]5CC[C@]5(C)[C@@H](C7=CC(=O)OC7)CC[C@]65O)C4)O[C@@H]3C)O[C@@H]2C)C[C@H](O)[C@@H]1O [DIGITOXIN] | Not Active | Not Active | Not Active | Not Active | Not Active | Not Active | Not Active | Not Active | Not Active | – | – | – | –
CCN1CC(CCN2CCOCC2)C(c2ccccc2)(c2ccccc2)C1=O (configuration not stated) [DOXAPRAM] | Not Active | Not Active | Not Active | Not Active | Not Active | Not Active | Not Active | Not Active | Not Active | – | – | – | –
Cn1c(=O)c2c(ncn2CC2OCCO2)n(C)c1=O [DOXOFYLLINE] | Not Active | Not Active | Not Active | Not Active | Not Active | Not Active | Not Active | Not Active | Not Active | – | – | – | –
COc1cccc2c1C(=O)c1c(O)c3c(c(O)c1C2=O)C[C@@](O)(C(=O)CO)C[C@@H]3O[C@H]1C[C@H](N)[C@H](O)[C@H](C)O1 [DOXORUBICIN] | Not Active | Not Active | Not Active | Not Active | Not Active | Not Active | Not Active | Not Active | Not Active | – | – | – | –
COc1cccc2c1C(=O)c1c(O)c3c(c(O)c1C2=O)C[C@@](O)(C(=O)CO)C[C@@H]3O[C@H]1C[C@H](N)[C@@H](O)[C@H](C)O1 [EPIRUBICIN] | Not Active | Not Active | Not Active | Not Active | Not Active | Not Active | Not Active | Not Active | Not Active | – | – | – | –
C[C@]12CC[C@@H]3c4ccc(OC(=O)c5ccccc5)cc4CC[C@H]3[C@@H]1CC[C@@H]2O [ESTRADIOL BENZOATE] | Not Active | – | Not Active | Not Active | Not Active | Not Active | Not Active | Not Active | – | 24.6 | 3.58 | 21.8 | 12.3
